We go through 13 compounds from publication PMC6150792 (Pain, 2018).

Series [1] concerns SUMOylation. The following applies: cited from earlier work.
Series [2] relates to CRMP2 residue S522 phosphorylation by Cdk5. The following applies: ref [66]; cited from earlier work.
Series [3] concerns model of postoperative, neuropathic, pain, and cephalic pain. The following applies: ref [63], [65]; cited from earlier work.
Series [4] deals with presynaptic N-type voltage-gated calcium channels. The following applies: ref [66]; cited from earlier work.
In series [5] the test system is cytosolic Na+ in cultured DRG neurons. As to the kind of experiment: Sodium fluorescence imaging. Format: cell-based, rat.
Series [6] has as its target recombinant human CRMP2-His (collapsin response mediator protein 2) (human) (UniProt Q16555). As to the kind of experiment: AlphaScreen or HTRF.
Series [7] shares this target. As to the kind of experiment: MST.
Series [8] shares this target. As to the kind of experiment: MST. The source holds these as a separate data set.
For series [9] the target is unchanged. The experiment in a line: MST. This is another data set of the same source.
Series [10] has the same target. The experiment in a line: MST. This is another data set of the same source.
Series [11] concerns humans. The following applies: current clinically used medication; no reference given; cited from earlier work.
In series [12] the test system is naïve male SD rats.
Series [13] deals with Ubc9 (Homo sapiens, UniProt P63279). The experiment in a line: MST, t-CSM binding to NT-647 labeled Ubc9.
Series [14] deals with SNI rats. The following applies: rat, in vivo.
In series [15] the test system is NaV1.7. The following applies: CAD cells; ref [20]; [21]; cited from earlier work.
Series [16] concerns the target CRMP2. As to the kind of experiment: Microscale thermophoresis. Set-up: species or system human. The following applies: read-out: apparent Kd, Ubc9 binding to CRMP2; MST; Ubc9-GST 0.003-100 μM; NT-647 labeled CRMP2; PBS-T (0.05% Tween-20), room temperature, 10 min; no cofactor; mean ± SEM, n=3. On the technique in general: Microscale thermophoresis detects binding through changes in fluorescence in a small temperature gradient.

The target of series [17] is Ubc9-CRMP2 interaction (Homo sapiens, UniProt P63279). The experiment in a line: ALPHA assay, Ubc9-GST binding to CRMP2-His and its disruption. The following applies: binding stable over at least this window.

Values joined by “and” are separate entries in the source; they are usually repeats but may differ in a detail not shown here. Equal entries are not always repeated. Where two headings read alike, the source gives them in different places. Ends that are not written are not given here.

Take `C[C@@H]1O[C@@H](O[C@H]2[C@H](O)C[C@H](c3ccc4c(c3O)C(=O)C3=C(C4=O)[C@@]4(O[C@H]5CC[C@H](O)[C@H](C)O5)C(=O)C[C@](C)(O)C[C@@]4(O)C=C3)O[C@@H]2C)CC[C@@H]1O[C@H]1C[C@@H](O)[C@H](O)[C@@H](C)O1` [kerriamycin B]: the “inhibition of SUMOylation” value in series [1] (ref [28]) is “inhibitors of SUMOylation”. For the compound ginkgolic acid, the “inhibition of SUMOylation” value in [1] (ref [27]) is “inhibitors of SUMOylation”. For `COC1=C(c2c(OC)cc3cc4c(c(O)c3c2O)C(=O)O[C@H](C)C4)C(=O)c2c(cc3c(c2O)C(=O)O[C@H](C)C3)C1=O` [viomellein], the “inhibition of SUMOylation” value in series [1] (ref [35]) is “inhibitors of SUMOylation”.

On to `COC[C@H](NC(C)=O)C(=O)NCc1ccccc1` [(S)-lacosamide], for which, in [2], the “CRMP2 phosphorylation by Cdk5” value is on record as “inhibiting phosphorylation by Cdk5”. In series [3], the “thermal hypersensitivity and mechanical allodynia” value was “mitigation of thermal hypersensitivity and mechanical allodynia”. The calcium influx entry in [4] is recorded as “decrease of calcium influx”. Take `C[C@@H]1O[C@@H](O[C@H]2C[C@@H](O)[C@]3(CO)[C@H]4[C@H](O)C[C@]5(C)[C@@H](C6=CC(=O)OC6)CC[C@]5(O)[C@@H]4CC[C@]3(O)C2)[C@H](O)[C@H](O)[C@H]1O` [Ouabain]: the “effect on [Na+]c of ouabain alone” value in series [5] (ouabain 1 mM alone, SBFI) was “increase in [Na^+]c”.

As for “Ubc9-GST fusion protein (E2 SUMO-conjugating enzyme Ubc9) (from UniProt P63279 1-158)”, the Kd in series [6] was determined as 0.8 µM; in [7], 12.2 µM; in series [8], 7.6 µM; in series [9], 25.5 µM; in series [10] it was 26 µM. Moreover, the other in series [7] is 80 µM and 137 µM. On to `C[C@H]1Oc2cc3c(-c4c(O)cc(O)c5c(O)c6c(cc45)O[C@H](C)[C@@H](C)C6=O)c(O)cc(O)c3c(O)c2C(=O)[C@@H]1C` [chaetochromin A], for which, in series [1] (ref [35]), the “inhibition of SUMOylation” value is recorded as “inhibitors of SUMOylation”.

With `NCC1(CC(=O)O)CCCCC1` [gabapentin], the sedation in humans entry in [11] is listed as “severe sedation in humans”. Further, the “ability to remain on the rotating rod” value in series [12] (gabapentin, naïve rats, data not shown) was “decrease in the ability of naïve rats to remain on the rotating rod”. In series [13], YGRKKRRQRRRGKMDENQ [t-CSM] yielded a Kd of 0.4 ± 0.1 µM. Further, in series [14], the “motor performance in SNI rats” value was “did not affect motor performance at any time point”. For the same compound, in series [12] (rat, in vivo), the “motor impairment or sedation” value is reported as “no motor impairment or sedation” and the time on rotarod is 180 ± 0 s. Take Huwentoxin-IV: in series [15], the “contribution of NaV1.7 to total sodium currents by isoform-specific blockade” value is given as ~ 80%. On to “Ubc9: E2 SUMO-conjugating enzyme, recombinant Ubc9-GST fusion protein”, for which, in series [16], the Kd is 12.2 ± 2.7 µM. Besides, the “stability of Ubc9-CRMP2 binding signal” value in series [17] is not below 18 h. For `NC1=N[C@H](O)[C@H]2[C@H]3O[C@]4(O)O[C@@H]([C@@H](O)[C@@]2(N1)[C@@H]4O)[C@]3(O)CO` [TTX, tetrodotoxin], the “ouabain-induced increase in [Na+]c” value in [5] is “inhibited”. Take `COC(=CC(=O)O)C1c2cc3ccc(-c4ccc5cc6c(c(O)c5c4O)C(=O)CC(C)(O)C6C(=CC(=O)O)OC)c(O)c3c(O)c2C(=O)CC1(C)O` (stereo not shown) [spectomycin B1]: in series [1] (ref [35]), the “inhibition of SUMOylation” value is on record as “inhibitors of SUMOylation”.
